Reference: PubChem BioAssay (NCI)
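Step 1: Grow cells in 96-well plates. Step 2: Expose to compound for 48 hours at 5 concentrations. Step 3: Interpolate endpoints linearly; if unreached, use highest concentration. GI50 marks 50% less growth. TGI: total growth inhibition.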

Legend:
Test in all cases: DTP human tumour cell line panel, 48 h
MOLT-4 leukemia = test system: MOLT-4 leukemia
HCT-15 colon = test system: HCT-15 colon
SR leukemia = test system: SR leukemia
NCI/ADR-RES ovarian = test system: NCI/ADR-RES ovarian
MDA-MB-231 breast = test system: MDA-MB-231 breast
SF-539 CNS = test system: SF-539 CNS
ACHN renal = test system: ACHN renal
OVCAR-3 ovarian = test system: OVCAR-3 ovarian
KM12 colon = test system: KM12 colon
HOP-92 NSCLC = test system: HOP-92 NSCLC
COLO 205 colon = test system: COLO 205 colon
HCT-116 colon = test system: HCT-116 colon
LOX IMVI melanoma = test system: LOX IMVI melanoma
NCI-H460 lung = test system: NCI-H460 lung
UACC-257 melanoma = test system: UACC-257 melanoma
MALME-3M melanoma = test system: MALME-3M melanoma
TK-10 renal = test system: TK-10 renal
SF-295 CNS = test system: SF-295 CNS
UO-31 renal = test system: UO-31 renal
MDA-MB-435 = test system: MDA-MB-435
PC-3 prostate = test system: PC-3 prostate
SK-MEL-28 melanoma = test system: SK-MEL-28 melanoma
NCI-H522 lung = test system: NCI-H522 lung
MCF7 breast = test system: MCF7 breast
K-562 leukemia = test system: K-562 leukemia
OVCAR-8 ovarian = test system: OVCAR-8 ovarian
MDA-MB-468 breast = test system: MDA-MB-468 breast
CCRF-CEM leukemia = test system: CCRF-CEM leukemia
HT29 colon = test system: HT29 colon
M14 melanoma = test system: M14 melanoma
NCI-H23 lung = test system: NCI-H23 lung
UACC-62 melanoma = test system: UACC-62 melanoma
EKVX NSCLC = test system: EKVX NSCLC
HCC-2998 colon = test system: HCC-2998 colon
SNB-75 CNS = test system: SNB-75 CNS
NCI-H226 lung = test system: NCI-H226 lung
OVCAR-4 ovarian = test system: OVCAR-4 ovarian
SN12C renal = test system: SN12C renal
IGROV1 ovarian = test system: IGROV1 ovarian
SF-268 CNS = test system: SF-268 CNS
SNB-19 CNS = test system: SNB-19 CNS
HS 578T breast = test system: HS 578T breast
CAKI-1 renal = test system: CAKI-1 renal
A498 renal = test system: A498 renal
A549 NSCLC = test system: A549 NSCLC
SK-MEL-5 melanoma = test system: SK-MEL-5 melanoma
HOP-62 NSCLC = test system: HOP-62 NSCLC
BT-549 breast = test system: BT-549 breast
RXF 393 renal = test system: RXF 393 renal
SW-620 colon = test system: SW-620 colon
U251 CNS = test system: U251 CNS
786-0 renal = test system: 786-0 renal
RPMI-8226 leukemia = test system: RPMI-8226 leukemia
OVCAR-5 ovarian = test system: OVCAR-5 ovarian
SK-OV-3 ovarian = test system: SK-OV-3 ovarian
DU-145 prostate = test system: DU-145 prostate
HL-60(TB) leukemia = test system: HL-60(TB) leukemia
T-47D breast = test system: T-47D breast

`NS(=O)(=O)c1ccc(-n2cc(-c3cccc(NC(=O)c4ccc(Cl)c(C(F)(F)F)c4)c3)nn2)cc1` was tested. Which GI50 (MOLT-4 leukemia) did it give?
Its GI50 is 3.1 µM.

And the TGI (MOLT-4 leukemia)?
Its TGI is > 100 µM.

And the GI50 (HCT-15 colon)?
The GI50 was 7.8 µM.

And the TGI (HCT-15 colon)?
Its TGI is 68.5 µM.

What about the GI50 (SR leukemia) of the same compound?
The GI50 was 3.9 µM.

And the TGI (SR leukemia)?
Its TGI is > 100 µM.

And the GI50 (NCI/ADR-RES ovarian)?
Its GI50 is 80.7 µM.

What about the TGI (NCI/ADR-RES ovarian) of the same compound?
The TGI was > 100 µM.

Which results are given for `CC1(C)CC[C@]2(C(=O)Nc3ccc(F)cc3)CC[C@]3(C)C(=CCC4[C@@]5(C)C[C@@H](O)[C@H](O)[C@@](C)(CO)C5CC[C@]43C)C2C1` (some centres not stated)?
GI50 (MDA-MB-231 breast): 14.2 µM; TGI (MDA-MB-231 breast): 28.7 µM; GI50 (SF-539 CNS): 14.8 µM; TGI (SF-539 CNS): 28.3 µM; GI50 (ACHN renal): 14.8 µM; TGI (ACHN renal): 28.1 µM; GI50 (OVCAR-3 ovarian): 16.3 µM; TGI (OVCAR-3 ovarian): 31.2 µM; GI50 (KM12 colon): 17.5 µM; TGI (KM12 colon): 35.7 µM; GI50 (HOP-92 NSCLC): 13.2 µM; TGI (HOP-92 NSCLC): 29 µM; GI50 (COLO 205 colon): 16.7 µM; TGI (COLO 205 colon): 33.6 µM; GI50 (MOLT-4 leukemia): 7.51 µM; TGI (MOLT-4 leukemia): 30.6 µM; GI50 (HCT-116 colon): 13.1 µM; TGI (HCT-116 colon): 26 µM; GI50 (LOX IMVI melanoma): 15.6 µM; TGI (LOX IMVI melanoma): 30.7 µM; GI50 (NCI-H460 lung): 15.4 µM; TGI (NCI-H460 lung): 33.8 µM; GI50 (UACC-257 melanoma): 18.4 µM; TGI (UACC-257 melanoma): 47.9 µM; GI50 (HCT-15 colon): 13.2 µM; TGI (HCT-15 colon): 27.4 µM; GI50 (MALME-3M melanoma): 16 µM; TGI (MALME-3M melanoma): 29.9 µM; GI50 (TK-10 renal): 22.8 µM; TGI (TK-10 renal): 54.1 µM; GI50 (SR leukemia): 10.3 µM; TGI (SR leukemia): 37.3 µM; GI50 (SF-295 CNS): 13.9 µM; TGI (SF-295 CNS): 28.6 µM; GI50 (UO-31 renal): 12.8 µM; TGI (UO-31 renal): 29.2 µM; GI50 (MDA-MB-435): 14.4 µM; TGI (MDA-MB-435): 28.8 µM; GI50 (PC-3 prostate): 12.8 µM; TGI (PC-3 prostate): 38.5 µM; GI50 (SK-MEL-28 melanoma): 15.6 µM; TGI (SK-MEL-28 melanoma): 31.6 µM; GI50 (NCI-H522 lung): 17.6 µM; TGI (NCI-H522 lung): 40.1 µM; GI50 (MCF7 breast): 13 µM; TGI (MCF7 breast): 29.5 µM; GI50 (K-562 leukemia): 17.8 µM; TGI (K-562 leukemia): 62.8 µM; GI50 (OVCAR-8 ovarian): 29 µM; TGI (OVCAR-8 ovarian): > 100 µM; GI50 (MDA-MB-468 breast): 13.5 µM; TGI (MDA-MB-468 breast): 31.3 µM; GI50 (CCRF-CEM leukemia): 20 µM; TGI (CCRF-CEM leukemia): 90.6 µM; GI50 (HT29 colon): 15.6 µM; TGI (HT29 colon): 30.5 µM; GI50 (M14 melanoma): 15.7 µM; TGI (M14 melanoma): 31.5 µM; GI50 (NCI-H23 lung): 17.9 µM; TGI (NCI-H23 lung): 39.3 µM; GI50 (UACC-62 melanoma): 9.17 µM; TGI (UACC-62 melanoma): 21.9 µM; GI50 (EKVX NSCLC): 17.2 µM; TGI (EKVX NSCLC): 47.2 µM; GI50 (HCC-2998 colon): 16.7 µM; TGI (HCC-2998 colon): 31.1 µM; GI50 (SNB-75 CNS): 13.5 µM; TGI (SNB-75 CNS): 61 µM; GI50 (NCI-H226 lung): 13.5 µM; TGI (NCI-H226 lung): 34.3 µM; GI50 (OVCAR-4 ovarian): 16.8 µM; TGI (OVCAR-4 ovarian): 46.5 µM; GI50 (SN12C renal): 14.8 µM; TGI (SN12C renal): 29.6 µM; GI50 (IGROV1 ovarian): 15.8 µM; TGI (IGROV1 ovarian): 34.1 µM; GI50 (SF-268 CNS): 22.6 µM; TGI (SF-268 CNS): 89 µM; GI50 (SNB-19 CNS): 23.8 µM; TGI (SNB-19 CNS): > 100 µM; GI50 (HS 578T breast): 20.5 µM; TGI (HS 578T breast): 76.9 µM; GI50 (CAKI-1 renal): 11.1 µM; TGI (CAKI-1 renal): 39.6 µM; GI50 (A498 renal): 20.8 µM; TGI (A498 renal): 45.6 µM; GI50 (A549 NSCLC): 29.5 µM; TGI (A549 NSCLC): > 100 µM; GI50 (SK-MEL-5 melanoma): 14.7 µM; TGI (SK-MEL-5 melanoma): 27.8 µM; GI50 (HOP-62 NSCLC): 18.8 µM; TGI (HOP-62 NSCLC): 43.5 µM; GI50 (BT-549 breast): 13.1 µM; TGI (BT-549 breast): 26.8 µM; GI50 (RXF 393 renal): 10.9 µM; TGI (RXF 393 renal): 23.3 µM; GI50 (SW-620 colon): 25.8 µM; TGI (SW-620 colon): > 100 µM; GI50 (U251 CNS): 14.9 µM; TGI (U251 CNS): 30 µM; GI50 (786-0 renal): 15.5 µM; TGI (786-0 renal): 30.4 µM; GI50 (RPMI-8226 leukemia): 14.9 µM; TGI (RPMI-8226 leukemia): 64.6 µM; GI50 (OVCAR-5 ovarian): 14.6 µM; TGI (OVCAR-5 ovarian): 28.4 µM; GI50 (SK-OV-3 ovarian): 20.3 µM; TGI (SK-OV-3 ovarian): 51 µM; GI50 (DU-145 prostate): 20.1 µM; TGI (DU-145 prostate): 45.6 µM; GI50 (HL-60(TB) leukemia): 14.2 µM; TGI (HL-60(TB) leukemia): 38.8 µM; GI50 (T-47D breast): 12.9 µM; TGI (T-47D breast): 32.1 µM
